Experimental findings from US11000033B2, “Ketone or oxime compound, and herbicide” (NISSAN CHEMICAL CORPORATION, priority 2014, dated 2021) are described below.

Holding throughout (assay type): in vivo
Data set [1] deals with Echinochloa crus-galli var. crus-galli. Kind of data set: Test Example 3: herbicidal effect by foliage application, Wagner pot (symbol H). The settings on record: application herbicide amount 320 g/ha. The method in brief:
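Rating at 3 weeks post-spray, by defined criteria. Treatment: emulsion diluted with water to a predetermined amount, applied evenly to foliage of 14-day-old plants raised in alluvial soil flooded 0.1–0.5 cm deep at 25–30 °C, rice co-sown.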

Data set [2] concerns rapeseed. The experiment in a line: Test Example 5: effect on crop by foliage application, plastic box (symbol g). The settings on record: 320 g/ha, 3 weeks after application. The method in brief:
(§1)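 Diluvial soil, sterilized and boxed (21 × 13 × 7 cm), received spot-sown seed covered by about 1.5 cm soil; plants were then greenhouse-grown at 25–30° C.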

The subject of data set [3] is beet. The experiment in a line: Test Example 4: effect on crop by soil treatment (symbol f). To be noted: for f: beet, effect on crop grade: application herbicide amount 320 g/ha. In outline: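 Crop seed is sown in spots together with several weed species in a box of sterilized diluvial soil. It is covered by about 1.5 cm of soil and kept in a greenhouse held between 25° C. and 30° C.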

For data set [4], the system named is Monochoria vaginalis. The experiment in a line: Test Example 1: herbicidal activity, application before weed generation in submerged conditions (symbol C). To be noted: application herbicide amount 320 g/ha. The method in brief:
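Application before weed emergence: an aqueous dilution of the emulsion formulation was poured onto the surface of 4 cm-deep floodwater on the day of sowing. Effect was judged after 3 weeks (greenhouse, 25–30 °C).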

Data set [5] concerns Scirpus juncoides. Kind of data set: Test Example 2: herbicidal activity, application during weed generation in submerged conditions (symbol B). To be noted: Table 23; application herbicide amount 320 g/ha; grade 0-5 by criteria of Test Example 1. The method in brief:
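Flooded-soil post-emergence test: emulsion of compound, water-diluted to target rate, applied to paddy water surface at 1–2 leaf stage of mixed-sown weeds (alluvial soil, 4 cm water, 25–30° C. greenhouse); visual rating 3 weeks after application.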

The test system of data set [6] is Avena fatua. The experiment in a line: Test Example 5: herbicidal effect by foliage application, plastic box (symbol I). The settings on record: 320 g/ha, 3 weeks after application. In outline: (§2)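 Emulsion formulation, diluted with water to the intended rate, was applied uniformly to leaves by small sprayer. Recipients were 14-day greenhouse-grown seedlings (25° C. to 30° C.). Assessment followed at 3 weeks.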

Data set [7] concerns Galium spurium. The experiment in a line: Test Example 4: herbicidal effect by soil treatment (symbol Q). In outline:
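Seeds were sown in sterilized diluvial soil, covered with about 1.5 cm of soil, and the soil surface was sprayed with a water-diluted emulsion of the compound at a predetermined rate. Plants grew in a greenhouse at 25° C. to 30° C.; effects were scored visually 3 weeks after application.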

Data set [8] concerns directly sowed rice plant. The experiment in a line: Test Example 3: effect on crop by foliage application, Wagner pot (symbol b). The settings on record: application herbicide amount 320 g/ha. The method in brief: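 Steps: fill a 1/10000-are Wagner pot with alluvial soil; add water and mix to submerge at 0.1–0.5 cm depth; sow rice plus Echinochloa crus-galli var. crus-galli, Leptochloa chinensis and Cyperus difformis; grow in a 25–30 °C greenhouse.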

In data set [9] the test system is soybean. The experiment in a line: Test Example 5: effect on crop by foliage application, plastic box (symbol d). To be noted: 320 g/ha, 3 weeks after application. The method in brief: as §1
Data set [10] deals with Veronica persica. Kind of data set: Test Example 5: herbicidal effect by foliage application, plastic box (symbol R). The settings on record: 320 g/ha, 3 weeks after application. In outline:
as §2

[11] abbreviates: application herbicide amount 320 g/ha.

For the compound `Cc1cc(C)c(C2=C(O)CC(CC(=O)c3ccc(F)cc3)C2=O)c(C)c1` (stereo not drawn) [2-032], in [1], the “herbicidal effect on H (Echinochloa crus-galli var. crus-galli), grade 0-5” value (shortened to “herbicidal effect on H”) is reported as 5 (Herbicidal ratio of 90% or more (almost completely withered)). In data set [2], the “g: rapeseed, effect on crop grade” value is 4 (Herbicidal ratio of 70% or higher and lower than 90%). For the same compound, in [3], the “f: beet, effect on crop grade” value is recorded as 0 (Herbicidal ratio of 5% or lower (almost no effect)). The “Herbicidal effect grade, C: Monochoria vaginalis” value (“Herbicidal effect grade, C” for short) in [4] is 1 (Herbicidal ratio of 5% or higher and lower than 20%). Moreover, in [5], the “Herbicidal effect grade, B: Scirpus juncoides” value (from here on “Herbicidal effect grade, B”) was 1 (Herbicidal ratio of 5% or higher and lower than 20%). In addition, the “I: Avena fatua, herbicidal effect grade” value in [6] is 3 (Herbicidal ratio of 40% or higher and lower than 70%). The “Q: Galium spurium, herbicidal effect grade” value (“Q: Galium spurium” for short) in [7] (setting [11]) is 0 (Herbicidal ratio of 5% or lower (almost no effect)). Moreover, in data set [8], the “effect on crop b (directly sowed rice plant), grade 0-5” value (from here on “effect on crop b”) is recorded as 5 (Herbicidal ratio of 90% or more (almost completely withered)). Further, the “d: soybean, effect on crop grade” value in [9] is given as 0 (Herbicidal ratio of 5% or lower (almost no effect)). Besides, the “R: Veronica persica, herbicidal effect grade” value (shortened to “R: Veronica persica”) in data set [10] is reported as 0 (Herbicidal ratio of 5% or lower (almost no effect)).
In the case of `CCOC(=O)C(C(=O)c1ccccn1)C1CC(O)=C(c2c(C)cc(C)cc2C)C1=O` (stereo not drawn) [2-013], the “herbicidal effect on H” value in data set [1] is 0 (Herbicidal ratio of 5% or lower (almost no effect)). The “g: rapeseed, effect on crop grade” value in data set [2] was 4 (Herbicidal ratio of 70% or higher and lower than 90%). In [3], the “f: beet, effect on crop grade” value is 0 (Herbicidal ratio of 5% or lower (almost no effect)). For the same compound, in data set [4], the “Herbicidal effect grade, C” value is listed as 0 (Herbicidal ratio of 5% or lower (almost no effect)). Besides, the “Herbicidal effect grade, B” value in data set [5] was 0 (Herbicidal ratio of 5% or lower (almost no effect)). For the same compound, the “I: Avena fatua, herbicidal effect grade” value in [6] was 3 (Herbicidal ratio of 40% or higher and lower than 70%). In data set [7] (setting [11]), the “Q: Galium spurium” value was 0 (Herbicidal ratio of 5% or lower (almost no effect)). In data set [8], the “effect on crop b” value is 0 (Herbicidal ratio of 5% or lower (almost no effect)). In addition, in [9], the “d: soybean, effect on crop grade” value is recorded as 0 (Herbicidal ratio of 5% or lower (almost no effect)). Besides, the “R: Veronica persica” value in [10] was 2 (Herbicidal ratio of 20% or higher and lower than 40%).
For `CON=CC1CC(O)=C(c2c(C)cc(C)cc2C)C1=O` (mixture of isomers) [3-001], the “herbicidal effect on H” value in data set [1] was 3 (Herbicidal ratio of 40% or higher and lower than 70%). Moreover, the “g: rapeseed, effect on crop grade” value in data set [2] is 0 (Herbicidal ratio of 5% or lower (almost no effect)). For the same compound, in data set [3], the “f: beet, effect on crop grade” value is recorded as 0 (Herbicidal ratio of 5% or lower (almost no effect)). The “Herbicidal effect grade, C” value in data set [4] is recorded as 0 (Herbicidal ratio of 5% or lower (almost no effect)). In data set [5], the “Herbicidal effect grade, B” value is listed as 0 (Herbicidal ratio of 5% or lower (almost no effect)). The “I: Avena fatua, herbicidal effect grade” value in [6] was 2 (Herbicidal ratio of 20% or higher and lower than 40%). For the same compound, in data set [7] (setting [11]), the “Q: Galium spurium” value is given as 0 (Herbicidal ratio of 5% or lower (almost no effect)). Further, the “effect on crop b” value in data set [8] was 2 (Herbicidal ratio of 20% or higher and lower than 40%). Further, the “d: soybean, effect on crop grade” value in data set [9] is recorded as 0 (Herbicidal ratio of 5% or lower (almost no effect)). For the same compound, in data set [10], the “R: Veronica persica” value was 0 (Herbicidal ratio of 5% or lower (almost no effect)).
Take `CCOC(=O)C(C(=O)CC1CC1)C1CC(O)=C(c2c(C)cc(C)cc2C)C1=O` (stereo not drawn) [2-025]: the “herbicidal effect on H” value in [1] is 3 (Herbicidal ratio of 40% or higher and lower than 70%). For the same compound, the “g: rapeseed, effect on crop grade” value in [2] was 3 (Herbicidal ratio of 40% or higher and lower than 70%). For the same compound, the “f: beet, effect on crop grade” value in data set [3] was 0 (Herbicidal ratio of 5% or lower (almost no effect)). Besides, the “Herbicidal effect grade, C” value in [4] is 0 (Herbicidal ratio of 5% or lower (almost no effect)). In data set [6], the “I: Avena fatua, herbicidal effect grade” value is 0 (Herbicidal ratio of 5% or lower (almost no effect)). The “Q: Galium spurium” value in data set [7] (setting [11]) was 0 (Herbicidal ratio of 5% or lower (almost no effect)). In data set [8], the “effect on crop b” value is 4 (Herbicidal ratio of 70% or higher and lower than 90%). Moreover, the “d: soybean, effect on crop grade” value in data set [9] is 0 (Herbicidal ratio of 5% or lower (almost no effect)). Besides, the “R: Veronica persica” value in data set [10] is listed as 0 (Herbicidal ratio of 5% or lower (almost no effect)).
As to `CON=C(C)CC1CC(OC(=O)C(C)Oc2ccc(Oc3ccc(Cl)cc3Cl)cc2)=C(c2c(C)cc(C)cc2C)C1=O` (stereo not drawn) [1-163], in data set [1], the “herbicidal effect on H” value is given as 5 (Herbicidal ratio of 90% or more (almost completely withered)). In [2], the “g: rapeseed, effect on crop grade” value is 5 (Herbicidal ratio of 90% or more (almost completely withered)). Besides, in data set [3] (320 g/ha), the “f: beet, effect grade on crop” value is 0 (Herbicidal ratio of 5% or lower (almost no effect)). In addition, the “Herbicidal effect grade, C” value in data set [4] was 0 (Herbicidal ratio of 5% or lower (almost no effect)). Moreover, the “Herbicidal effect grade, B” value in [5] was 4 (Herbicidal ratio of 70% or higher and lower than 90%). For the same compound, the “I: Avena fatua, herbicidal effect grade” value in data set [6] is 5 (Herbicidal ratio of 90% or more (almost completely withered)). The “Q: Galium spurium” value in data set [7] (320 g/ha) is 0 (Herbicidal ratio of 5% or lower (almost no effect)). Besides, the “d: soybean, effect on crop grade” value in data set [9] was 2 (Herbicidal ratio of 20% or higher and lower than 40%). Also, the “R: Veronica persica” value in data set [10] is 3 (Herbicidal ratio of 40% or higher and lower than 70%).
For `CON=C(C)CC1CC(O)=C(c2c(C)cc(C(C)=O)cc2C)C1=O` (stereo not drawn) [6-026], in data set [1], the “herbicidal effect on H” value is reported as 5 (Herbicidal ratio of 90% or more (almost completely withered)). The “g: rapeseed, effect on crop grade” value in data set [2] is 3 (Herbicidal ratio of 40% or higher and lower than 70%). Besides, the “f: beet, effect on crop grade” value in data set [3] is listed as 0 (Herbicidal ratio of 5% or lower (almost no effect)). Further, in [4], the “Herbicidal effect grade, C” value is given as 0 (Herbicidal ratio of 5% or lower (almost no effect)). Further, the “I: Avena fatua, herbicidal effect grade” value in data set [6] is on record as 5 (Herbicidal ratio of 90% or more (almost completely withered)). Moreover, the “Q: Galium spurium” value in [7] (setting [11]) is given as 0 (Herbicidal ratio of 5% or lower (almost no effect)). Also, the “effect on crop b” value in [8] was 5 (Herbicidal ratio of 90% or more (almost completely withered)). Moreover, the “d: soybean, effect on crop grade” value in data set [9] is reported as 0 (Herbicidal ratio of 5% or lower (almost no effect)). Further, in [10], the “R: Veronica persica” value is 1 (Herbicidal ratio of 5% or higher and lower than 20%).
